According to ChEMBL document CHEMBL5331084, “Structure-based lead optimization of peptide-based vinyl methyl ketones as SARS-CoV-2 main protease inhibitors” (Eur J Med Chem, 2023):

Test system: SARS-CoV-2
Assay: microbe, parasite or virus in culture
Conditions: Severe acute respiratory syndrome coronavirus 2, Munich 929, Huh-7

Row | Compound | EC50 [nM]
1 | CCCC[C@H](NC(=O)OCc1ccccc1)C(=O)N[C@H](/C=C/C(C)=O)C[C@@H]1CCNC1=O | 18500
2 | CC(=O)/C=C/[C@H](C[C@@H]1CCNC1=O)NC(=O)[C@H](CC1CC1)NC(=O)OCc1ccccc1 | 1500
3 | CC(=O)/C=C/[C@H](C[C@@H]1CCNC1=O)NC(=O)[C@H](CC1CCCCC1)NC(=O)OCc1ccccc1 | 1800
